Molecular target: T1, HA-S147A CaSR mutant (Rattus norvegicus, UniProt P48442, S147A)
T1 construct: mGluR5 signal peptide (N); expressed in transfected cells; host or cells: HEK293T
T1 sequence (P48442 20-1079 S147A): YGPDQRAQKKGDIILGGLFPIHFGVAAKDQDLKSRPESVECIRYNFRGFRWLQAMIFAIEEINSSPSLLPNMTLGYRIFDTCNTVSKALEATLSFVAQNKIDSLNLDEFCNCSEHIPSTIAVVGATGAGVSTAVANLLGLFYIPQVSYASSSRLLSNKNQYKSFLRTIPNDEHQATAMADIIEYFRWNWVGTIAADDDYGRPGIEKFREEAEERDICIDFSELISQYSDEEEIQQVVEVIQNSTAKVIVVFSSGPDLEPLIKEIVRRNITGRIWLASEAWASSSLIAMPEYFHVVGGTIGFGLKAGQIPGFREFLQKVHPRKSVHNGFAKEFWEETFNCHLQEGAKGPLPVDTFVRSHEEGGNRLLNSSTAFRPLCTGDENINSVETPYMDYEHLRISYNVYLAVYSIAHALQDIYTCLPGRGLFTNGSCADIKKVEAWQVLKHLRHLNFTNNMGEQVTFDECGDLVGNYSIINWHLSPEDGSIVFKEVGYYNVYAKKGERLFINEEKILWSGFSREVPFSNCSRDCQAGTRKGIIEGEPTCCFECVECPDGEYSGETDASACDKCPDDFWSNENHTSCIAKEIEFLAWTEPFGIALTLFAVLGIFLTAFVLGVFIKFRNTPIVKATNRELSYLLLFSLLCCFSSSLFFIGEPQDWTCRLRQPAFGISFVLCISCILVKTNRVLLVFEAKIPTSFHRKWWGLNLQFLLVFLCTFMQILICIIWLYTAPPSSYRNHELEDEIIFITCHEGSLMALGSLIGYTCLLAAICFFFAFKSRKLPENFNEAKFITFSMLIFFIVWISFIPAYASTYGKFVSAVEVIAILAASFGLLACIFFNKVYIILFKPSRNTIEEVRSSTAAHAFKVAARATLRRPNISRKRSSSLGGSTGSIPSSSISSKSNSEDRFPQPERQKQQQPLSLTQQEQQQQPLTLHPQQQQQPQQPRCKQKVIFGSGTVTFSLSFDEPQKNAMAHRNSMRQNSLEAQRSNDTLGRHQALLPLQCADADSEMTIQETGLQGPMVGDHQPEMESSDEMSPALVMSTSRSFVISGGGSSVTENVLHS
Assay: IP-One assay, HEK293T transiently transfected
Format: cell-based

- EC50 (Ca^2+ alone): 9.07 mM
- Hill coefficient ± S.E.M. (Ca^2+ alone): 3.50 ± 0.26
- pEC50 ± S.E.M. (Ca^2+ alone): 2.04 ± 0.01
- Max ± S.E.M. (normalized to maximum response of WT CaSR): 150 ± 17%
Structure (SMILES): [Ca+2] [Ca^2+]
